In article PMC8041284, “Tunable Methacrylamides for Covalent Ligand Directed Release Chemistry” (Journal of the American Chemical Society, 2021):
Like-named read-outs stand apart in the source and are kept apart here.

Target: BTK (Homo sapiens, UniProt Q06187)
Assay: biochemical
[1] = read-out: BTK inhibition (%), 0.75 uM BTK, […] probe 3l, 15 min preincubation

Sequence of BTK (Q06187 402-655 limits assumed): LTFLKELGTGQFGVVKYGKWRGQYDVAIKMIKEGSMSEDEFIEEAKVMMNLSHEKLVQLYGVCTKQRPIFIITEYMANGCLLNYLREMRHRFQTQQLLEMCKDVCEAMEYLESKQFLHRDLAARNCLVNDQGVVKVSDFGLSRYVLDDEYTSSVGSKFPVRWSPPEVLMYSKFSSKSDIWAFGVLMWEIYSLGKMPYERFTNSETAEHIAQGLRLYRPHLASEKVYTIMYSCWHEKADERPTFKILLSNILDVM

Row | Structure (SMILES) | inhibition at 10 µM [1] | inhibition at 10 µM (read-out: BTK inhibition (%))
1 | COc1cc(CCC(C)=O)ccc1O [PCM-0094824] | -0.8% | –
2 | C=CS(=O)(=O)NC1CCN(C(=O)CNc2cc(I)c(Cl)cc2OC)CC1 [PCM-0215340] | 6.2% | –
3 | NCCC[C@H](N)C(=O)O [PCM-0216253] | -3.4% | –
4 | COc1cc2c(Nc3ccc(NC(=O)c4ccccc4)cc3)ncnc2cc1OCCCN1CCOCC1 [PCM-0094881] | 77.9% | –
5 | O=C(O)CCN1C(=O)/C(=C/c2ccc(-c3ccc([N+](=O)[O-])cc3)o2)SC1=S [PCM-0215696] | 59.5% | –
6 | O=c1ccn([C@@H]2O[C@H](COP(=O)(O)O)[C@@H](O)[C@H]2O)c(=O)[nH]1 [PCM-0216290] | -6.8% | –
7 | Nc1ncnc2c1ncn2[C@H]1C[C@H](O)[C@@H](CO)O1 [PCM-0101923] | 15.4% | –
8 | CCCCCCCCCCCCCCCC(=O)OC[C@H](O)[C@H]1OC(=O)C(O)=C1O [PCM-0095304] | -34.2% | –
9 | C[C@@H]1CC[C@@]2(OC1)O[C@H]1C[C@H]3[C@@H]4CC=C5C[C@@H](O[C@@H]6O[C@H](CO)[C@@H](O)[C@H](O)[C@H]6O)CC[C@]5(C)[C@H]4CC[C@]3(C)[C@H]1[C@@H]2C [PCM-0216366] | -20.1% | –
10 | CCOC(=O)C1=C(N)Oc2ccc(Cl)cc2C1C(C#N)C(=O)OCC (centres unmarked) [PCM-0215487] | 40.9% | –
11 | CCCCOc1ccc(C(=O)Nc2ccc(F)cc2F)cc1 [PCM-0095388] | -5.4% | –
12 | COC1(c2sc3c(N4CCOCC4)nc(-c4cnc(N)nc4)nc3c2C)COC1 [PCM-0215460] | 33.8% | –
13 | CCOC(=O)[C@H](CCc1ccccc1)N[C@@H](C)C(=O)N1Cc2cc(OC)c(OC)cc2C[C@H]1C(=O)O [PCM-0095243] | -6.2% | –
14 | OCc1cc(C(O)CNCCCCCCOCCCCc2ccccc2)ccc1O (centres unmarked) [PCM-0065569] | -12.4% | –
15 | CN1Cc2c(ccc3c2OCO3)[C@@]2(C)[C@@H](O)Cc3cc4c(cc3[C@@H]12)OCO4 [PCM-0216379] | -2.3% | –
16 | COC(=O)[C@H](O)[C@@H](NC(=O)c1ccccc1)c1ccccc1 [PCM-0216282] | -5.4% | –
17 | COC1=C[C@]23CCCN2CCc2cc4c(cc2[C@@H]3[C@@H]1O)OCO4 [PCM-0214978] | – | 0%
18 | O=C(NO)c1cccc(C(=O)NCCc2ccccc2)c1 [PCM-0215456] | 10% | –
19 | COc1ccc([C@@H]2CC(=O)c3c(O)cc(O[C@@H]4O[C@H](CO)[C@@H](O)[C@H](O)[C@H]4O[C@@H]4O[C@@H](C)[C@H](O)[C@@H](O)[C@H]4O)cc3O2)cc1 [PCM-0216440] | 2.3% | –
20 | CC(NC(=O)c1ccccc1N=Cc1c(O)ccc2ccccc12)c1ccccc1 (centres unmarked) [PCM-0095400] | 9% | –
21 | C[C@@H]1C(=O)O[C@H](C)[C@H]1C[C@@H](O)[C@](C)(O)[C@H]1CC[C@@]2(O)C3=CC(=O)[C@@H]4C[C@@H](O)[C@@H](O)C[C@]4(C)[C@H]3CC[C@]12C [PCM-0216317] | -5.4% | –
22 | COc1cc(/C=C/C=O)ccc1O [PCM-0216477] | 1.5% | –
23 | NCCCCCC(=O)O [PCM-0064402] | -2.3% | –

Row | Structure (SMILES) | inhibition at 10 µM [1] | inhibition at 10 µM (read-out: BTK inhibition (%))
24 | CC1(C)[C@@H](O)CC[C@]2(C)[C@H]3C(=O)C=C4[C@@H]5C[C@@](C)(C(=O)O)CC[C@]5(C)CC[C@@]4(C)[C@]3(C)CC[C@@H]12 [PCM-0214675] | 4.7% | –
25 | NC[C@H](O)c1ccc(O)c(O)c1 [PCM-0214713] | -5.4% | –
26 | CC(C)N(CCC(=O)c1ccc2ccccc2c1)Cc1ccccc1 [PCM-0064875] | 29% | –
27 | Fc1cc(-c2cccc3ncc(-c4cnn(C5CCNCC5)c4)nc23)cc(F)c1CN1CCOCC1 [PCM-0095382] | 78.6% | –
28 | c1csc(-c2ccc(-c3cccs3)s2)c1 [PCM-0215157] | 0% | –
29 | C=C(C)[C@@H]1CC[C@]2(C(=O)O[C@@H]3O[C@H](CO[C@@H]4O[C@H](CO)[C@@H](O[C@@H]5O[C@@H](C)[C@H](O)[C@@H](O)[C@H]5O)[C@H](O)[C@H]4O)[C@@H](O)[C@H](O)[C@H]3O)CC[C@]3(C)[C@H](CC[C@@H]4[C@@]5(C)CC[C@H](O[C@@H]6OC[C@H](O)[C@H](O)[C@H]6O[C@@H]6O[C@@H](C)[C@H](O)[C@@H](O)[C@H]6O)[C@@](C)(CO)[C@@H]5CC[C@]43C)[C@@H]12 [PCM-0216377] | -42.6% | –
30 | CN(C)CC(=O)Nc1ccc2[nH]c(=O)c3ccccc3c2c1 [PCM-0213810] | -7.7% | –
31 | COc1cc2c(cc1OC)CN(C(=O)/C=C/c1c(-c3ccccc3)n(C)c3ncccc13)CC2 [PCM-0215686] | 37.8% | –
32 | C=C(C)[C@@H]1CC[C@]2(C(=O)O)CC[C@]3(C)[C@H](CC[C@@H]4[C@@]5(C)CC[C@H](O[C@@H]6OC[C@H](O)[C@H](O)[C@H]6O[C@@H]6O[C@@H](C)[C@H](O)[C@@H](O)[C@H]6O)[C@@](C)(CO)[C@@H]5CC[C@]43C)[C@@H]12 [PCM-0216514] | 34% | –
33 | O=C1CCc2cc(OCCCCc3nnnn3C3CCCCC3)ccc2N1 [PCM-0064629] | -19.5% | –
34 | CO[C@H]1O[C@@H]2O[C@@]3(C)CC[C@H]4[C@H](C)CC[C@@H]([C@H]1C)[C@@]24OO3 [PCM-0214640] | 3.1% | –
35 | C/C=C1\[C@H]2C=C(C)C[C@]1(N)c1ccc(=O)[nH]c1C2 [PCM-0091027] | -24.7% | –
36 | C/C=C(\C)C(=O)N[C@@H](c1ccccc1)[C@@H](O)C(=O)O[C@H]1C[C@@]2(O)[C@@H](OC(=O)c3ccccc3)[C@@H]3[C@]4(OC(C)=O)CO[C@@H]4C[C@H](O)[C@@]3(C)C(=O)[C@H](OC(C)=O)C(=C1C)C2(C)C [PCM-0214711] | – | -8.6%
37 | CCc1cc(Nc2nc(-c3ccc(-n4cnc(C)c4)c(F)c3)cs2)c(C)cc1C [PCM-0215986] | 10% | –
38 | NCCOCCOCCNC(=O)Cc1ccc(Nc2nc(NCc3ccc(F)cc3)nc(NCC3CCCCC3)n2)cc1 [PCM-0215568] | -36.3% | –
39 | C[C@]12CCC3=C4CCC(=O)C=C4CC[C@H]3[C@@H]1CC[C@@]2(O)CC#N [PCM-0095005] | -11.7% | –
40 | COc1cc2oc(=O)ccc2c(OC)c1C[C@@H](O)C(C)(C)O [PCM-0216455] | -13.1% | –
41 | CN1CCN(c2nc3ccccc3nc2Cl)CC1 [PCM-0095510] | -6.2% | –
42 | C[C@]12CC[C@H]3[C@@H](CC[C@@]45O[C@@H]4C(O)=C(C#N)C[C@]35C)[C@@H]1CC[C@@H]2O [PCM-0214622] | 13.2% | –
43 | C=C1CC[C@H]2[C@@H](/C=C(/C)C(=O)[C@@]3(O)C[C@H](C)[C@H](O)[C@@H]3[C@H]1O)C2(C)C [PCM-0216650] | – | -9.3%
44 | Cn1cc(C2=C(c3ccc(Cl)cc3Cl)C(=O)NC2=O)c2ccccc21 [PCM-0064915] | 3.4% | –
45 | Clc1ccc(C(c2c[nH]c3ccccc23)c2c[nH]c3ccccc23)cc1 [PCM-0215640] | 71.7% | –
46 | CCc1cc2c(cc1N1CCC(N3CCOCC3)CC1)C(C)(C)c1[nH]c3cc(C#N)ccc3c1C2=O [PCM-0095523] | 11.7% | –

Row | Structure (SMILES) | inhibition at 10 µM [1] | inhibition at 10 µM (read-out: BTK inhibition (%))
47 | O=C(O)C1=CO[C@@H](O[C@@H]2O[C@H](CO)[C@@H](O)[C@H](O)[C@H]2O)[C@H]2[C@@H]1C=C[C@]2(O)CO [PCM-0216181] | -6.9% | –
48 | CN1CCN(Cc2ccc(-c3cnc4[nH]cc(-c5ccc6[nH]ccc6c5)c4c3)cc2)CC1 [PCM-0215377] | 111% | –
49 | CCn1c(=O)c(-c2ccc(-c3cncs3)cc2Cl)cc2cnc(Nc3ccc(N4CCN(C)CC4)cc3)nc21 [PCM-0215453] | 18.6% | –
50 | CC(C)(C)Cn1c(N)nc2ccc(-c3[nH]c(C(C)(C)C)nc3-c3ccc(F)cc3)nc21 [PCM-0095175] | -5.1% | –
51 | COc1cc(-c2cn(C)c(=O)c3cnccc23)cc(OC)c1CN(C)C [PCM-0215650] | -3.1% | –
52 | CCC[C@H](Nc1nc(-c2ccc(NC(=O)NCC)c(OC)c2)ncc1C)c1cccnc1 [PCM-0095772] | -14% | –
53 | Cn1cc(C(=O)[C@@H]2CCc3nc[nH]c3C2)c2ccccc21 [PCM-0214919] | -3.1% | –
54 | FC(F)(F)c1ccc(/C=C/c2nc(COc3ccc(CCCCn4ccnn4)cc3)co2)cc1 [PCM-0095252] | 13.1% | –
55 | CN1CCN(Cc2ccc(Nc3ncc(Cl)c(Nc4ccccc4S(=O)(=O)N(C)C)n3)cc2)CC1 [PCM-0215510] | 67.2% | –
56 | CCN(CC)c1ccc2c(-c3ccccc3C(=O)O)c3ccc(=[N+](CC)CC)cc-3oc2c1 [PCM-0216592] | 85.7% | –
57 | COc1ccc(-c2oc3c(CC=C(C)C)c(O[C@@H]4O[C@H](CO)[C@@H](O)[C@H](O)[C@H]4O)cc(O)c3c(=O)c2O[C@@H]2O[C@@H](C)[C@H](O)[C@@H](O)[C@H]2O[C@@H]2OC[C@@H](O)[C@H](O)[C@H]2O)cc1 [PCM-0216511] | -8.5% | –
58 | NS(=O)(=O)c1cc2c(cc1Cl)NC=NS2(=O)=O [PCM-0064466] | -10.1% | –
59 | CCOc1ccc(Cc2cc([C@]34OC[C@](CO)(O3)[C@@H](O)[C@H](O)[C@H]4O)ccc2Cl)cc1 [PCM-0216244] | 7.7% | –
60 | O=C(c1ccccc1O)c1[nH]c(Cl)c(Cl)c1-n1c(C(=O)c2ccccc2O)cc(Cl)c1Cl [PCM-0215850] | 117% | –
61 | CCOC(=O)c1c2c3c(cccc3[nH]c1=O)C(=O)c1ccccc1-2 [PCM-0215657] | -20.1% | –
62 | C=C(C)[C@@H]1CC[C@]2(C(=O)O)CC[C@]3(C)[C@H](CC[C@@H]4[C@@]5(C)CC[C@H](OC(=O)CC(C)(C)C(=O)O)C(C)(C)[C@@H]5CC[C@]43C)[C@@H]12 [PCM-0216605] | 17.8% | –
63 | N[C@@H](CCC(=O)O)C(=O)O [PCM-0215690] | 10.2% | –
64 | CC(=O)O[C@H]1C(=O)[C@@]2(C)[C@H]([C@H](OC(=O)c3ccccc3)[C@]3(O)C[C@H](OC(=O)[C@H](O)[C@@H](NC(=O)c4ccccc4)c4ccccc4)C(C)=C1C3(C)C)[C@]1(OC(C)=O)CO[C@@H]1C[C@@H]2O [PCM-0214601] | -17.9% | –
65 | OC[C@H]1O[C@@H](c2ccc(F)c(Cc3cc4ccccc4s3)c2)[C@H](O)[C@@H](O)[C@@H]1O [PCM-0215870] | 1.5% | –
66 | Cc1ccc(Cl)c(Nc2ccccc2C(=O)O)c1Cl [PCM-0214800] | 9.7% | –
67 | CC1(C)CCC[C@]2(C)[C@H]3CCO[C@]3(C)CC[C@@H]12 [PCM-0215965] | 15.4% | –
68 | CC(C)=CCC/C(C)=C\CO [PCM-0216032] | 3.1% | –
